Results: patent US6835382B2, “Ii peptide therapeutics to enhance antigen presentation” (University of Massachusetts, priority 1996, dated 2004)
Non-standard residues stand in square brackets, D forms with d. hArg = N=C(N)NCCCC[C@H](N)C(=O)O; Cit = NC(=O)NCCC[C@H](N)C(=O)O; Orn = NCCC[C@H](N)C(=O)O

Assays:
[1] = system: murine E^k MHC class II allele; experiment: antigenic peptide prepulse assay, E^k allele (fixed APC prepulsed with PGCC81-104); assay type: cell-based; conditions: for Activity in antigenic peptide prepulse assay, E^k (baseline = 1.0): Table 26, prepulse 1.25 μM antigenic peptide; for Activity in antigenic peptide prepulse assay, E^k (baseline without AE peptide = 1.00): Table 19, prepulse 20 μM PGCC81-104
Method: (§1) In a second type of assay, the “peptide prepulse assay”, the antigenic peptide is incubated with paraformaldehyde-fixed APC for 6 h. The APC are washed and incubated for 24 h with the AE101 series homolog and the T cell hybridoma specific for the antigenic peptide. After that incubation, an aliquot of the culture supernatant is transferred to a second culture to measure the relative degree of T hybridoma stimulation, as reflected in the effect of released interleukins on the growth of an interleukin-dependent, indicator cell line, as described above.
(§2) The two above described assays measure different aspects of the molecular mechanism of the AE101 series of peptides. In the “simultaneous assay”, AE101 series peptides are thought to induce the release of endogenously bound peptides and to permit the binding of the second, specific antigenic peptide which is relatively abundant in the culture fluid. The AE101 series peptides enhance antigenic peptide-specific T cell responses in simultaneous assays. In the “peptide prepulse” assay, the specific antigenic peptide becomes bound to MHC class II molecules on the surface of the fixed APC during the 6 h prepulse incubation. The effect of the AE101 series homologs is then thought to release that antigenic peptide, resulting in an apparent suppression of the immune response.
(§3) The AE101 series peptides are thought to contact the MHC class II molecules at a discrete site outside the antigenic peptide-binding groove. AE101 peptide binding to this “Ii-KEY” site is thought to induce a conformational change in the MHC class II molecules accelerating the dissociation of previously bound antigenic peptide. […] The AE101 series peptides thus inhibit antigenic peptide-specific T cell responses in the “peptide prepulse” assays.
(§4) Antigenic peptide-specific T cell activation was measured by the following procedure. Mitomycin C-treated A20 cells (A^dE^d) or CH27 cells APC (A^kE^k) were generated by incubating 5×10^6 cells/mL for 20 min at 37° C. with 0.025 mg/mL of mitomycin C (Sigma) in Dulbecco's Modified Eaglel's Medium (DMEM)/10 mM N-2(hydroxyethylpiperazine-N″[2-ethanesulfonic acid] (HEPES), followed by two washes with four volumes of DMEM-5% fetal calf serum (FCS), 10 mM HEPES. Fixed APC were generated by treating 1×10^6 cells/mL for 5 min with 0.5% paraformaldehyde in PBS (pH 7.2), followed by two washes with four volumes of DMEM-10% FCS, 10 mM HEPES. T cell hybridomas were irradiated 2200 rads before each assay.
(§5) The “peptide prepulse assay” was carried out under essentially the same conditions as described for the “simultaneous assay” with the following modifications. Fixed APC were first incubated for 6 h at 1×10^6 cells/mL in complete DMEM-5% FCS in 24-well microculture plates (1 mL/well) with antigenic peptide, followed by four washes with 10 volumes of DMEM-5% FCS. The cells were then exposed to varying concentrations of AE101 series peptide (64 μM, 16 μM, 4 μM, and 1 μM) for 24 h in the presence of the T cell hybridoma specific to the antigenic peptide. Interleukin release from these cultures was measured by proliferation of HT-2 cells to interleukins in supernatants transferred from the primary culture. Generally, a single dose of 64 μM of each AE101 series peptide was used. The baseline T cell response was measured by culturing T hybridoma cells with the antigenic peptide-prepulsed APC in the absence of AE101 series peptides.
Table 19: Activities of C-terminal truncation analogs of AE101 in an antigenic peptide prepulse assay. […] Paraformaldehyde-treated APC (fixed APC) expressing MHC class II molecules were incubated with antigenic peptide for 6 h (HEL106-116 for E^d and PGCC81-104 for E^k). After this incubation, the prepulsed APC were washed and cultured with T hybridoma cells and AE101 series peptides. The antigenic peptide concentration during the prepulse was 12 μM for Ed and 20 μM for E^k. The AE101 series peptide concentrations were 64 μM for E^d and 16 μM for E^k. […]

[2] = target: T1, murine E^d MHC class II allele (Mus musculus, UniProt P01904+P01915); experiment: antigenic peptide prepulse assay, E^d allele (fixed APC prepulsed with HEL106-116); assay type: cell-based; set-up: The A20 and CH27 B cell lymphoma lines express H-2^d and H-2^k alleles, respectively; endogenous in cells; host or cells: A20 B cell lymphoma (mitomycin C-treated or paraformaldehyde-fixed); conditions: for Activity in antigenic peptide prepulse assay, E^d (baseline = 1.00) / Activity in antigenic peptide prepulse assay, E^d (baseline = 1.0) / Activity in antigenic peptide prepulse assay, E^d (baseline without AE peptide = 1.00): AE peptide 64 μM; for Activity in antigenic peptide prepulse assay, E^d (baseline = 1.0): Table 26; for Activity in antigenic peptide prepulse assay, E^d (baseline without AE peptide = 1.00): Table 19, prepulse 12 μM HEL106-116
T1 sequence (P01904 26-255): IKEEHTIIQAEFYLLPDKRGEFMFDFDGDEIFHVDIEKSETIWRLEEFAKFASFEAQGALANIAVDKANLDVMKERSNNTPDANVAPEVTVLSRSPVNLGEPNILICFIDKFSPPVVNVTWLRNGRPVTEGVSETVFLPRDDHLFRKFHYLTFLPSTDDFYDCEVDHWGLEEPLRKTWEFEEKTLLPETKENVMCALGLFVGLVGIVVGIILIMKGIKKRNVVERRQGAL
T1 sequence (P01915 27-264 limits assumed): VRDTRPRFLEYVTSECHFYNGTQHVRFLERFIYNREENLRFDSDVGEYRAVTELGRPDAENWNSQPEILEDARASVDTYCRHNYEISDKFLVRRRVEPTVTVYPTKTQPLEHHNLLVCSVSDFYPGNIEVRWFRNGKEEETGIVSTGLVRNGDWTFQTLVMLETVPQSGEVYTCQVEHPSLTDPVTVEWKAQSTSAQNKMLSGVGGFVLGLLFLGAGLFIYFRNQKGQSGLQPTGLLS
Method: as §1, §2, §3, §4, §5
[…] […] Paraformaldehyde-treated APC (fixed APC) expressing MHC class II molecules were incubated with antigenic peptide for 6 h (HEL106-116 for E^d and PGCC81-104 for E^k). After this incubation, the prepulsed APC were washed and cultured with T hybridoma cells and AE101 series peptides. […] The AE101 series peptide concentrations were 64 μM for E^d and 16 μM for E^k. The dilutions of supernatant taken into the HT-2 cell assay were 1:4 for Ed and 1:2 for E^k.

[3] = Table 22, AE peptide 16 μM, prepulse 20 μM antigenic peptide, supernatant 1:2
[4] = Table 24, AE peptide 64 μM, prepulse 0.625 μM antigenic peptide, supernatant 1:8
[5] = Table 22, prepulse 6 μM antigenic peptide, supernatant 1:8
[6] = Table 24, prepulse 24 μM antigenic peptide, supernatant 1:4
[7] = Table 20, AE peptide 16 μM, prepulse 20 μM antigenic peptide, supernatant 1:2
[8] = Table 20, prepulse 3 μM antigenic peptide, supernatant 1:2
[9] = AE peptide 64 μM, supernatant 1:8
[10] = prepulse 24 μM antigenic peptide, supernatant 1:2
[11] = Table 25, AE peptide 64 μM, prepulse 2.5 μM antigenic peptide, supernatant 1:10
[12] = Table 25, prepulse 24 μM antigenic peptide, supernatant 1:4
[13] = AE peptide 16 μM, supernatant 1:2

Substance | Activity in antigenic peptide prepulse assay, E^k (baseline = 1.00) [1, 4] | Activity in antigenic peptide prepulse assay, E^d (baseline = 1.00) [2, 6] | Activity in antigenic peptide prepulse assay, E^k (baseline = 1.00) [1, 11] | Activity in antigenic peptide prepulse assay, E^d (baseline = 1.00) [2, 12] | other results
Ac-LRMKLP k-NH2 [AE166] | 0.83 | 0.65 | – | – | Activity in antigenic peptide prepulse assay, E^k (baseline = 1.00) [1, 3]: 0.15; Activity in antigenic peptide prepulse assay, E^d (baseline = 1.00) [2, 5]: 0.11
Ac-Y Q MKLPKSAK-NH2 [AE138] | – | – | – | – | Activity in antigenic peptide prepulse assay, E^k (baseline = 1.00) [1, 7]: 0.85; Activity in antigenic peptide prepulse assay, E^d (baseline = 1.00) [2, 8]: 0.73
Ac-LR HArg KLPK-NH2 [AE197] | – | – | – | – | Activity in antigenic peptide prepulse assay, E^k (baseline = 1.0) [1, 9]: 0.96; Activity in antigenic peptide prepulse assay, E^d (baseline = 1.0) [2, 10]: 0.32
Ac-ARNKLPK-NH2 [AE344] | – | – | 0.76 | 0.46 | –
Ac-LRLK HArg PK-NH2 [AE341] | – | – | 1.10 | 0.12 | –
Ac-LRNKNPF-NH2 [AE348] | – | – | 0.72 | 0.39 | –
Ac-YRMKLPKSAK-NH2 [AE109] | – | – | – | – | Activity in antigenic peptide prepulse assay, E^k (baseline without AE peptide = 1.00) [1, 13]: 0.07; Activity in antigenic peptide prepulse assay, E^k (baseline = 1.00) [1, 7]: 0.28; Activity in antigenic peptide prepulse assay, E^k (baseline = 1.00) ([1]; Table 21, AE peptide 16 μM, prepulse 20 μM antigenic peptide, supernatant 1:2): 0.07; Activity in antigenic peptide prepulse assay, E^d (baseline without AE peptide = 1.00) ([2]; supernatant 1:4): 0.11; Activity in antigenic peptide prepulse assay, E^d (baseline = 1.00) [2, 8]: 0.28; Activity in antigenic peptide prepulse assay, E^d (baseline = 1.00) ([2]; Table 21, prepulse 24 μM antigenic peptide, supernatant 1:8): 0.10
Ac-LRMKL p K-NH2 [AE165] | – | – | – | – | Activity in antigenic peptide prepulse assay, E^k (baseline = 1.00) [1, 3]: 0.22; Activity in antigenic peptide prepulse assay, E^d (baseline = 1.00) [2, 5]: 0.25
Ac-YRMKLPK-NH2 [AE113] | – | – | – | – | Activity in antigenic peptide prepulse assay, E^k (baseline without AE peptide = 1.00) [1, 13]: 0.04; Activity in antigenic peptide prepulse assay, E^d (baseline without AE peptide = 1.00) ([2]; supernatant 1:4): 0.10
Ac-LRLKWPK-NH2 [AE309] | 0.81 | 0.44 | 0.93 | 0.48 | Activity in antigenic peptide prepulse assay, E^k (baseline = 1.0) [1, 9]: 0.98; Activity in antigenic peptide prepulse assay, E^d (baseline = 1.0) [2, 10]: 0.25
Ac-LRLKyPK-NH2 [AE308] | 0.63 | 0.93 | – | – | –
Ac-Y F MKLPKSAK-NH2 [AE139] | – | – | – | – | Activity in antigenic peptide prepulse assay, E^k (baseline = 1.00) [1, 7]: 0.38; Activity in antigenic peptide prepulse assay, E^d (baseline = 1.00) [2, 8]: 0.67
Ac-LR (mL) KYPk-NH2 [AE305] | 0.91 | 0.72 | – | – | –
Ac-ARMKNPK-NH2 [AE345] | – | – | 0.86 | 0.61 | –
Ac-LRMKLP N-NH2 (Ac-LRMKLPN-NH2) [AE246] | – | – | – | – | Activity in antigenic peptide prepulse assay, E^k (baseline = 1.0) [1, 9]: 0.98; Activity in antigenic peptide prepulse assay, E^d (baseline = 1.0) [2, 10]: 0.69
Ac-LRNKNPK-NH2 [AE349] | – | – | 0.81 | 0.69 | –
Ac-Y H MKLPKSAK-NH2 [AE133] | – | – | – | – | Activity in antigenic peptide prepulse assay, E^k (baseline = 1.00) [1, 7]: 0.86; Activity in antigenic peptide prepulse assay, E^d (baseline = 1.00) [2, 8]: 0.39
Ac-Y D MKLPKSAK-NH2 [AE135] | – | – | – | – | Activity in antigenic peptide prepulse assay, E^k (baseline = 1.00) [1, 7]: 0.95; Activity in antigenic peptide prepulse assay, E^d (baseline = 1.00) [2, 8]: 0.70
Ac-Y[hArg]MKLPKSAK-NH2 [AE132] | – | – | – | – | Activity in antigenic peptide prepulse assay, E^k (baseline = 1.00) [1, 7]: 0.1; Activity in antigenic peptide prepulse assay, E^k (baseline = 1.0) [1, 9]: 0.89; Activity in antigenic peptide prepulse assay, E^d (baseline = 1.00) [2, 8]: 0.58; Activity in antigenic peptide prepulse assay, E^d (baseline = 1.0) [2, 10]: 0.82
Ac-L[Cit]MKNPK-NH2 [AE342] | – | – | 1.10 | 0.67 | –
Ac- (mL) RMKLPK-NH2 [AE174] | 0.81 | 0.60 | – | – | Activity in antigenic peptide prepulse assay, E^k (baseline = 1) ([1]; Table 23, as printed: antigenic peptide prepulse 64 μM, AE peptide 1:8 μM, supernatant 1:2): 0.81; Activity in antigenic peptide prepulse assay, E^d (baseline = 1) ([2]; Table 23, as printed: antigenic peptide prepulse 64 μM, AE peptide 1:4 μM, supernatant 1:8): 0.6
Ac-LRMKLP F-NH2 (Ac-LRMKLPF-NH2) [AE248] | – | – | 0.98 | 0.63 | –
Ac-LR (mL) KYPK-NH2 [AE303] | 1.00 | 0.78 | – | – | –
Ac-LRLKYPk-NH2 [AE307] | 1.10 | 0.59 | – | – | –
Ac-LR[Orn]KLPK-NH2 [AE195] | – | – | 0.74 | 0.41 | –
Ac-LR (mL) KyPK-NH2 [AE304] | 0.76 | 0.78 | – | – | –
Ac-LRLKYPK-NH2 [AE301] | 0.80 | 0.48 | 0.86 | 0.66 | Activity in antigenic peptide prepulse assay, E^k (baseline = 1.0) [1, 9]: 0.99; Activity in antigenic peptide prepulse assay, E^d (baseline = 1.0) [2, 10]: 0.34
Ac-LR N KLPK-NH2 (Ac-LRNKLPK-NH2) [AE202] | – | – | 0.84 | 0.30 | –
Ac-YRMKL-NH2 [AE116] | – | – | – | – | Activity in antigenic peptide prepulse assay, E^k (baseline without AE peptide = 1.00) [1, 13]: 0.10; Activity in antigenic peptide prepulse assay, E^d (baseline without AE peptide = 1.00) ([2]; supernatant 1:4): 0.80
